These results are taken from ChEMBL document CHEMBL1201862, “PubChem BioAssay data set” (2004).

One assay addresses Genome polyprotein (Hepatitis C virus, UniProt Q2Q167). As to the kind of experiment: HCV core protein dimerization inhibitors, dose response, biochemical, TR-FRET (AID 2159).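 Also: blocks dimerization of HCV core protein measured by TR-FRET between tagged core106 pairs.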 Further details: species or system Hepacivirus hominis. In general terms: Time-resolved FRET reads energy transfer from a long-lived donor to a nearby acceptor.
Another assay concerns the target Large T antigen (Simian virus 40, UniProt P03070). It counts as functional, Betapolyomavirus macacae.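 Also: Confirmatory-stage PubChem screen for compounds that inhibit SV40 T antigen.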
The target in assay [1] is Induced myeloid leukemia cell differentiation protein Mcl-1 (Homo sapiens, UniProt Q07820). It counts as functional.
A short description of assay [2]: inhibition of K1F phage lysis, E. coli UTI89, bacterial capsule biogenesis inhibitors, alamar blue (AID 488966). It counts as functional. For orientation: The colour change of resazurin is a common sign of viable cells or microbes.
The target in assay [3] is 26S proteasome non-ATPase regulatory subunit 14 (Homo sapiens, UniProt O00487). As to the kind of experiment: inhibition of proteasome subunit RPN11 – biochemical, fluorescence polarization, uHTS hits, confirmation (AID 602368). It counts as functional. On the technique in general: Fluorescence polarisation rises when a labelled molecule tumbles more slowly, as on binding a larger partner.

Assay [4] deals with 72 kDa type IV collagenase (Homo sapiens, UniProt P08253). The assay is described as follows: Dose Response validation of uHTS RPN11 inhibitor hits using a MMP-2 Fluorescence assay. It counts as functional.
In a further assay the target is Prothrombin (Bos taurus, UniProt P00735). As to the kind of experiment: thrombin inhibition, dose response, biochemical, fluorescence polarization, uHTS hits (AID 602369). The format is functional.
Another assay relates to CHO-K1. As to the kind of experiment: Counterscreen for antagonists of the orexin 1 receptor (OX1R; HCRTR1): Homogeneous time resolved fluorescence (HTRF)-based cell-based dose response assay to identify antagonists of the parental CHO-K1 cell line. [Related pubchem assays (depositor defined):AID434989, AID435008, AID463079, AID485270, AID492963, AID492964, AID492965, AID493232, AID504699, AID504701]. It counts as functional. The settings on record: Cricetulus griseus.

A short description of assay [5]: Luminescence Cell-Based Dose Retest to Confirm Inhibitors of Cancer Stem Cells. [Related pubchem assays (depositor defined):AID2717, AID2721]. It counts as functional. The settings on record: Homo sapiens.
Assay [6] can be described thus: Counterscreen for antagonists of the orexin 1 receptor (OX1R; HCRTR1): Fluorescence-based cell-based high throughput dose response assay to identify antagonists of the parental CHO cell line. [Related pubchem assays (depositor defined):AID434989, AID435008, AID463079, AID485270, AID492963, AID492964, AID492965, AID493232, AID504699, AID504701]. The format is functional.

Assay [7] has as its target T1, Orexin/Hypocretin receptor type 1 (Homo sapiens, UniProt O43613). The assay is described as follows: Homogeneous Time Resolved Fluorescence (HTRF)-based cell-based high throughput dose response assay for antagonists of the orexin 1 receptor (OX1R; HCRTR1). [Related pubchem assays (depositor defined):AID434989, AID435008, AID463079, AID485270, AID492963, AID492964, AID492965, AID493232, AID504717, AID504718]. It counts as functional.

The target in assay [8] is T1, Orexin/Hypocretin receptor type 1. The assay is described as follows: Fluorescence-based cell-based high throughput dose response assay for antagonists of the orexin 1 receptor (OX1R; HCRTR1). [Related pubchem assays (depositor defined):AID434989, AID435008, AID463079, AID485270, AID492963, AID492964, AID492965, AID493232, AID504717, AID504718]. It counts as functional.

In assay [9] the target is T2, Orexin receptor type 2 (Homo sapiens, UniProt O43614). The assay is described as follows: Counterscreen assay for antagonists of the orexin 1 receptor (OX1R; HCRTR1): Fluorescence-based cell-based dose response assay for antagonists of the orexin 2 receptor (OX2R; HCRTR2), run by assay provider. It counts as functional.
For assay [10], the target named is T2, Orexin receptor type 2. The assay is described as follows: Counterscreen assay for antagonists of the orexin 1 receptor (OX1R; HCRTR1): Homogeneous Time Resolved Fluorescence (HTRF)-based cell-based dose response assay for antagonists of the orexin 2 receptor (OX2R; HCRTR2), run by assay provider. It counts as functional.
For assay [11], the target named is Neuropeptides B/W receptor type 1 (Homo sapiens, UniProt P48145). The assay is described as follows: GPR7 antagonist potency, late-stage follow-up, cell-based, fluorescence, dose response, set 5 (AID 588566). It counts as functional.
The target of assay [12] is Melanin-concentrating hormone receptor 1 (Homo sapiens, UniProt Q99705). As to the kind of experiment: Late-stage fluorescence-based counterscreen for antagonists of the G-protein coupled receptor 7 (GPR7): cell-based dose response assay to identify antagonists of the melanin-concentrating hormone receptor 1 (MCHR1) Set 5. The format is functional.
The target of assay [13] is Rho-associated protein kinase 2 (Homo sapiens, UniProt O75116). It counts as functional.
Assay [14] concerns the target Mitogen-activated protein kinase 13 (Homo sapiens, UniProt O15264). The format is functional.
The nature of assay [15]: inhibitors of firefly luciferase expression or activity, dose response, H4 neuroglioma cells, luminescence (AID 1990). It counts as functional, cell-based.
The test system of assay [16] is BJ. As to the kind of experiment: cytotoxicity toward BJ-TERT fibroblasts, dose response, cell-based, RAS-independent, luminescence (AID 1933). It counts as functional. The note with it: Homo sapiens.
Assay [17] can be described thus: Luminescence Cell-Based Dose Response HTS to Identify Inhibitors of 5'UTR Stem-Loop Driven Prion Protein mRNA Translation in H4 Neuroglioblastoma Cells. [Related pubchem assays: 1827 (Project Summary), 1813 (Primary HTS)]. The format is functional.
The nature of assay [18]: inhibitors of SNCA 5'UTR-driven reporter translation, confirmation, H4 neuroglioma cells, luminescence (AID 1988). It counts as functional, cell-based.
For assay [19], the system named is BJ. The assay is described as follows: cells. The format is functional, cell-based. The settings on record: Homo sapiens.
Assay [20] can be described thus: Luminescence-based dose response cell-based high throughput screening assay for cytotoxic compounds using the IEC-6 intestinal epithelial cell line. [Related pubchem assays: 1858 (Summary AID.), 1825 (Counterscreen.), 1907 (Confirmation screen.)]. It counts as functional.
Assay [21] relates to BJ. As to the kind of experiment: cytotoxicity toward BJ-TERT-LT-ST fibroblasts, dose response, cell-based, RAS-independent, luminescence (AID 1935).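 Also: BJ fibroblasts immortalized with TERT plus LT and ST oncogenes.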 The note with it: Homo sapiens. It counts as functional.
Assay [22] can be described thus: cytotoxicity toward DRD oncogenic fibroblasts, dose response, cell-based, non-viral oncogenic, luminescence (AID 1934). It counts as functional. The settings on record: Homo sapiens.
For assay [23], the system named is BJ. The assay is described as follows: cytotoxicity toward Ras-transformed BJeLR fibroblasts, dose response, cell-based, alamar blue fluorescence, cherrypicked samples (AID 2631).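 Also: confirmatory dose-response assay in RAS-dependent BJ fibroblasts engineered with TERT, LT and ST, with cytotoxicity read by fluorescence.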 The format is functional. The note with it: Homo sapiens.
Another assay relates to INS1. The assay is described as follows: beta cell apoptosis inhibitors, cytokine rescue, dose response, luminescence, retest (AID 449756).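 Also: cell death triggered by IL-1 beta plus TNF-alpha plus IFN-gamma mixture; protective hits raise ATP signal compared with cytokine alone wells.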 The settings on record: Rattus norvegicus. It counts as functional, cell-based.
Assay [24] in a line: Shn3 3'UTR reporter inhibitors, dose response, cell-based, Clone20 osteoblasts, firefly luciferase, cherry-picked (AID 624132).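 Also: firefly luciferase luminescence from reporter carrying the Shn3 3'UTR in osteoblasts.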 It counts as functional.
Assay [25] is described as follows: HepG2 cell cytotoxicity, dose response, cytotoxicity control for Shn3 inhibitor project, CellTiter-Glo, cherry-picked (AID 624134). The format is functional, cell-based.
Assay [26] in a line: control 3'UTR Renilla luciferase suppression, dose response, counter-screen for Shn3 inhibitor project, cell-based, Clone20-Shn3RL, cherry-picked (AID 624133). The format is functional.
Assay [27] concerns the target T3, High affinity choline transporter 1 (Homo sapiens, UniProt Q9GZV3).
T3 sequence (Q9GZV3 whole entry): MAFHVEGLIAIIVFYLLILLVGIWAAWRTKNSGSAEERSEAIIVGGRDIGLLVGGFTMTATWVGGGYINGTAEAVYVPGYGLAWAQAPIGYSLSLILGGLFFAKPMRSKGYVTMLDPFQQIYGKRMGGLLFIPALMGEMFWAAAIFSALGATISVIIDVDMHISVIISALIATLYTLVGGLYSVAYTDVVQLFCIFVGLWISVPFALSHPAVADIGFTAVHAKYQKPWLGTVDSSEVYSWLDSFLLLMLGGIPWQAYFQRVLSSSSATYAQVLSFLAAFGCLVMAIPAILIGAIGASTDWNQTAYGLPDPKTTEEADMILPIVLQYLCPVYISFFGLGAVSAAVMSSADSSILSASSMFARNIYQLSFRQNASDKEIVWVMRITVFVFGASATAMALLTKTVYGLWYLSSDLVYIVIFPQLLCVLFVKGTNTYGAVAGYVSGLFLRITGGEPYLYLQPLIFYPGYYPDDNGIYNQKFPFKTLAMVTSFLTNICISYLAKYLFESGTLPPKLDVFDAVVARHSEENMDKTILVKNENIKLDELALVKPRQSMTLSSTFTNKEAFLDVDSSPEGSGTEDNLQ
As to the kind of experiment: CHT activators, dose response, cell-based, 10-point CRC, membrane potential dye (AID 602376). The format is functional.

The nature of assay [28]: miR-122 activators in hepatoma reporter cells, dose response, cell-based, Huh7 psiCHECK-miR122, Renilla luciferase, cherry-picked (AID 651956).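 Also: huh7 hepatoma cells stably carrying a psiCHECK-2 miR-122 sensor plasmid; renilla luciferase signal reporting endogenous miR-122 activity after 48 h compound exposure.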 The format is functional.
Assay [29] is described as follows: inhibitors of PGC1a acetylation in cells, dose response, cell-based, cherry-picked samples (AID 720514).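 Also: potency may reflect raised or lowered acetylation signal.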 It counts as functional.
The nature of assay [30]: HEK293T cytotoxicity, dose response, cytotoxicity control for miR-122 modulator project, cell-based, inhibitor set, cherry-pick, set 2 (AID 720697). It counts as functional.
The nature of assay [31]: HEK293T cytotoxicity, dose response, cytotoxicity control for miR-122 modulator project, cell-based, activator set, cherry-pick (AID 720690).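 Also: HEK293T human cells scored for general mammalian cytotoxicity.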 The format is functional.

Active and inactive are the calls of the source.

T1 sequence (O43613 whole entry): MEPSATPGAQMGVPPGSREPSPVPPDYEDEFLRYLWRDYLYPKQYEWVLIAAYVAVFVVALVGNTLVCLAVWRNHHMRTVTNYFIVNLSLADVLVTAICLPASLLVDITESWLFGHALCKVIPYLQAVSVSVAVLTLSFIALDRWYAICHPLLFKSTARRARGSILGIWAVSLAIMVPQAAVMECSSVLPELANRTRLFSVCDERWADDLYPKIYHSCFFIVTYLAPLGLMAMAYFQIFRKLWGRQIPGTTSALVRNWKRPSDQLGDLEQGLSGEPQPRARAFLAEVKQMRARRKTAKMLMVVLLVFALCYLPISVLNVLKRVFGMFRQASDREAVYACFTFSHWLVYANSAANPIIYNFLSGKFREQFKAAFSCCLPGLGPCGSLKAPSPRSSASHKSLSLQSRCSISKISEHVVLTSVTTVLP
T2 sequence (O43614 whole entry): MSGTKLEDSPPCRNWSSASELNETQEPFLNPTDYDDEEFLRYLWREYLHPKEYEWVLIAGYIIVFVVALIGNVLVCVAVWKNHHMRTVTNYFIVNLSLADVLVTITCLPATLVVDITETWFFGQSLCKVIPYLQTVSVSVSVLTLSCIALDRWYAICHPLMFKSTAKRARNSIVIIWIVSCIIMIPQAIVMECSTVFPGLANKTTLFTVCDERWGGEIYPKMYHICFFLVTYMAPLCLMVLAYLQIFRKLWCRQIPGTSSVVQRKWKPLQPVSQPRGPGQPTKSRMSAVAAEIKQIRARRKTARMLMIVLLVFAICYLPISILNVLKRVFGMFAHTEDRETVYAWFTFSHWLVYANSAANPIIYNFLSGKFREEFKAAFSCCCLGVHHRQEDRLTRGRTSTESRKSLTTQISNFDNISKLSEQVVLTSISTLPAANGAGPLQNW
Induced myeloid leukemia cell differentiation protein Mcl-1, sequence (Q07820 whole entry): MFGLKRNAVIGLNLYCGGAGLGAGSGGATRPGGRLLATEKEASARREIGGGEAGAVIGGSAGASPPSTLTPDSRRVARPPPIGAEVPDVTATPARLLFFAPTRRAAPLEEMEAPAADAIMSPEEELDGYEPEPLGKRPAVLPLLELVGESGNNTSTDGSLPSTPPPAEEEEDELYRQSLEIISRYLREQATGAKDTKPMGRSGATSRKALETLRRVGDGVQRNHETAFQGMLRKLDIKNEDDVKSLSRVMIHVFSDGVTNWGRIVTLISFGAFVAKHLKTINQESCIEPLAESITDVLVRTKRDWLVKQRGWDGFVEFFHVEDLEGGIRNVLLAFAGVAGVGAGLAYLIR
72 kDa type IV collagenase, sequence (P08253 whole entry): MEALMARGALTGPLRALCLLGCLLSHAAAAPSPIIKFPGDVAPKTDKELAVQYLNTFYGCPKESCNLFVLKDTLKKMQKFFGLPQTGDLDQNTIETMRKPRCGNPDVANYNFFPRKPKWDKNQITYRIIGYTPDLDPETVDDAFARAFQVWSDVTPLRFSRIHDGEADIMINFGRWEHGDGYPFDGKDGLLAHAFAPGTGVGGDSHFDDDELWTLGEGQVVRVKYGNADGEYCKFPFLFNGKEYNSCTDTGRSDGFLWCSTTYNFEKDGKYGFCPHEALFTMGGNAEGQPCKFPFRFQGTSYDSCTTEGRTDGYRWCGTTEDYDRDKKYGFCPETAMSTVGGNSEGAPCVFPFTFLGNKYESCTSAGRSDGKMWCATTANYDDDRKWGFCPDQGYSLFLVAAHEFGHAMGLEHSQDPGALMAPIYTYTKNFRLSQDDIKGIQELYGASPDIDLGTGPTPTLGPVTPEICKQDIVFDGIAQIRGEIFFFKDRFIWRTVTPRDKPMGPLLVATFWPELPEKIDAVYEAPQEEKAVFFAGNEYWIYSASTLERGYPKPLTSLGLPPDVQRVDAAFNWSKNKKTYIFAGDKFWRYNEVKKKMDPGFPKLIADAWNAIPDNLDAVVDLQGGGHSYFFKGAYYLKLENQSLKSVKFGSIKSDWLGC
Mitogen-activated protein kinase 13, sequence (O15264 whole entry): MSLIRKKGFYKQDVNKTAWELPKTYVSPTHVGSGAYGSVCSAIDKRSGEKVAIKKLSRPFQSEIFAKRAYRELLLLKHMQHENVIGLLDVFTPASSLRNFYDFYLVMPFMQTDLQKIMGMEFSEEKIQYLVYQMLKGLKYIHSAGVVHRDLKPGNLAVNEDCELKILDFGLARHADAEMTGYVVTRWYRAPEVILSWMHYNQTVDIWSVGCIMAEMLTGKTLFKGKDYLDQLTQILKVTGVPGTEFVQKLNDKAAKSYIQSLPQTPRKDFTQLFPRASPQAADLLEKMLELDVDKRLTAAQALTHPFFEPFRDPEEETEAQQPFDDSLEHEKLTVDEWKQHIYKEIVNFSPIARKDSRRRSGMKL
Large T antigen, sequence (P03070 whole entry): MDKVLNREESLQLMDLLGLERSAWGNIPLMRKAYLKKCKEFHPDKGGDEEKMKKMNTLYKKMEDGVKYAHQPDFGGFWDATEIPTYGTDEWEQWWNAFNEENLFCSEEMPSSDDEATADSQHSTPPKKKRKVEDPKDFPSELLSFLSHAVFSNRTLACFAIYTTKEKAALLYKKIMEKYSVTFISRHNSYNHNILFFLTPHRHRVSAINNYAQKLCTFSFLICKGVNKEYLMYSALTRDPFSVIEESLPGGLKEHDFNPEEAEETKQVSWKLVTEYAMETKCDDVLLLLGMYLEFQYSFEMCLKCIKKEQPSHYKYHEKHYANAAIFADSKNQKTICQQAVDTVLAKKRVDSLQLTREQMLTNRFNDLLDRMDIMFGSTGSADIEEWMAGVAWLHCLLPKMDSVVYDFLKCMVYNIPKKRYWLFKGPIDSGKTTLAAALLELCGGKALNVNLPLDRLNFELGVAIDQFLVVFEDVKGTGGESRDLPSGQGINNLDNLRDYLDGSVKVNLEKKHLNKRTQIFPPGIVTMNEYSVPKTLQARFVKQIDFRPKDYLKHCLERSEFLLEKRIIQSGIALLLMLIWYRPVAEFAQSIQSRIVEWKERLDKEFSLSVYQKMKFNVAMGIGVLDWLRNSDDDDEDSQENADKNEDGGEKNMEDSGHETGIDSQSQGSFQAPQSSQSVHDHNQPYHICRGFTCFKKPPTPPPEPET
26S proteasome non-ATPase regulatory subunit 14, sequence (O00487 whole entry): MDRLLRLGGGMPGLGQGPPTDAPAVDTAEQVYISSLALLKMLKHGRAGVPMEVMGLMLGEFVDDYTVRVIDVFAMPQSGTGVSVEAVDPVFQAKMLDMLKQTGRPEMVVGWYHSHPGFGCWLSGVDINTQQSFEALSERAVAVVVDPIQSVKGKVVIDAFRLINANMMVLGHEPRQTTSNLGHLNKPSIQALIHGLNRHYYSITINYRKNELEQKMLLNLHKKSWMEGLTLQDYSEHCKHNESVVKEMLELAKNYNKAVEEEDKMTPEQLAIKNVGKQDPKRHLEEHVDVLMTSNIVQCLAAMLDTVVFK
Genome polyprotein, sequence (Q2Q167 whole entry): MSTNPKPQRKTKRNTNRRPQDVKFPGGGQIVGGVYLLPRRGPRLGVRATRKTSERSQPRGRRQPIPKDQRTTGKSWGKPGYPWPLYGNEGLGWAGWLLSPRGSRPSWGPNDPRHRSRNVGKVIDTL
Melanin-concentrating hormone receptor 1, sequence (Q99705 whole entry): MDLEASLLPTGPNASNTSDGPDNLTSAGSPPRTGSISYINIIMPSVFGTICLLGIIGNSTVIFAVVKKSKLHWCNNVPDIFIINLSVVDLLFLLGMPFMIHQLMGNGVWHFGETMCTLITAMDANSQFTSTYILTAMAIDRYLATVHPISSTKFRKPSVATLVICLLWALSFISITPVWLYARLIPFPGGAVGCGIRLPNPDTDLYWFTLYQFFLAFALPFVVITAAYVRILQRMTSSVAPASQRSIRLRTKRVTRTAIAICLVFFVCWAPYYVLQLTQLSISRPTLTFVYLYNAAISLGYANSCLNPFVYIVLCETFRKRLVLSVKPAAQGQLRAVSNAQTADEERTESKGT
Neuropeptides B/W receptor type 1, sequence (P48145 whole entry): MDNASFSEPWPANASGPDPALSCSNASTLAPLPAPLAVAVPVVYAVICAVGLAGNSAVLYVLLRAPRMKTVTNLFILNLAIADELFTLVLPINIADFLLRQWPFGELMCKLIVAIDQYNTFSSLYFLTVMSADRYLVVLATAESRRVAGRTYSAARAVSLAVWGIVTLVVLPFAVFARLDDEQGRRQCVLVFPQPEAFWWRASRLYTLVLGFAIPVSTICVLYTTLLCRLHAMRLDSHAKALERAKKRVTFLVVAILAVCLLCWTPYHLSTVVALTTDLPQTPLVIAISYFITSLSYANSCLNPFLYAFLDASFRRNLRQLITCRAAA

On to `CS(=O)(=O)c1ccc2c(c1)SC1=NC(=O)/C(=C/c3ccco3)C(=N)N12`, for which the IC50 (as a rule, the concentration that inhibits the measured activity by half) is > 49.8 µM (not active) against Genome polyprotein; > 100 µM (active) at Large T antigen; 2.84 µM (active) in assay [1]; > 150 µM (active) in [2]; 14.4 µM (active) in assay [3]; 21.2 µM (active) in assay [4]. Further, the half-inhibitory concentration (IC50) on Prothrombin was 21.6 µM (active).

As for `C=CCn1c2ccccc2c(=O)c2cc(C#Cc3cc(OC)cc(OC)c3)ccc21`, the IC50 with CHO-K1 is > 66.2 µM (inactive); in assay [6], > 49.8 µM (inactive); in assay [7] it was 1.19 µM (active); in assay [8] it was 7.69 µM (active); at Orexin receptor type 2 [9], 11 µM (inactive); on Orexin receptor type 2 [10], > 50 µM (inactive). The AC50 (as a rule, the midpoint of the concentration-response curve, whichever way the signal moves) in [5] was 1.94 µM (active).

For `O=c1c(Oc2ccc(C(F)(F)F)cc2)c(Cl)cnn1Cc1cccc2ccccc12`, the IC50 in [11] and in assay [12] was > 20 µM (inactive) each time.

`O=C(NC(CO)Cc1ccccc1)c1ccc(-c2ccncc2)cc1` (stereo unspecified): the Ki (usually the equilibrium dissociation constant of an inhibitor or competing ligand from its target) in assay [13] is 0.0398 µM (active); in assay [14], > 7.94 µM (inactive).

On to `Cc1ccccc1OCC(O)CNC1CCC(NCC(O)COc2ccccc2C)CC1` (stereo unspecified), for which the 50% effective concentration (EC50) (commonly the concentration needed to bring the measured effect to its halfway point) in assay [15] is > 120 µM (not active); in the assay on BJ [16], 2.62 µM (inconclusive); in assay [17], 8.66 µM (active); in assay [18], 8.49 µM (active); in the assay on BJ [19], 5.55 µM (active); in the assay with BJ [21], 2.8 µM (inconclusive). Besides, the figures for the EC50 (in [22]; in the assay with BJ [23]; in [27]) were 3.77 µM (active), 0.582 µM (inconclusive) and 19.3 µM (active), respectively. Further, in [20], the half-inhibitory concentration (IC50) is 2.61 µM (active). The AC50 was 5.79 µM (active) in the assay with INS1; 4.5 µM (active) in assay [24]; 1.89 µM (active) in assay [25]; 11.8 µM (active) in assay [26]; 10.4 µM (active) in assay [28]; 6.68 µM (active) in assay [29]. The AC50 in [30] was 6.41 µM (active); in assay [31], 9.9 µM (active).
